We go through 19 compounds from patent US10336762B2 (priority 2017, dated 2019).

The subject of one experiment is TNFα. The experiment in a line: cells. The class given is cell-based, human. As to conditions: Homo sapiens, Monocyte, LPS-stimulated human monocytes, TNFα content; read-out: EC50 TNF.
For a further experiment, the target named is IRAK4 enzyme (Homo sapiens (Human), UniProt Q9NWZ3). The experiment in a line: biochemical. Type of experiment: biochemical. As to conditions: IRAK4 enzyme, TR-FRET, 500 μM ATP. Background: In TR-FRET formats the signal depends on donor and acceptor labels being close together.

Each structure is given as a SMILES string.

Chain of IRAK4 enzyme (Q9NWZ3 whole entry): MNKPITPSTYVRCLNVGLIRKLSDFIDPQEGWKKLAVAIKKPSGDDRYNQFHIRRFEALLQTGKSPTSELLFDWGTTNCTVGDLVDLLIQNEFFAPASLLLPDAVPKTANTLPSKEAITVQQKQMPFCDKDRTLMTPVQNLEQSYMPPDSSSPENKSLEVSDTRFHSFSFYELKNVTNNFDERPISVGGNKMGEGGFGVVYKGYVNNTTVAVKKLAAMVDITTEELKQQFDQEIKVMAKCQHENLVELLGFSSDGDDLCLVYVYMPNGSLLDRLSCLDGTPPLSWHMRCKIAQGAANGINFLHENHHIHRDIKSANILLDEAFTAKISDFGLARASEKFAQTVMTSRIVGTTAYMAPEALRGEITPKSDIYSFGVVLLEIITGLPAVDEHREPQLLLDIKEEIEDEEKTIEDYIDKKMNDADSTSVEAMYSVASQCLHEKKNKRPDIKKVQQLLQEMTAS

On to `CC(C)(O)[C@H](F)CNC(=O)c1cnc(-c2ccc3cc(C#N)cnn23)cc1Nc1ccc(C(=O)N2CCC2)cc1` [Example 349, (R)-4-((4-(azetidine-1-carbonyl)phenyl)amino)-6-(3-cyanopyrrolo[1,2-b]pyridazin-7-yl)-N-(2-fluoro-3-hydroxy-3-methylbutyl)nicotinamide], for which the EC50 with TNFα stood at 77 nM. At IRAK4 enzyme, this compound returned a half-inhibitory concentration (IC50) of 1 nM.

As to `CNC(=O)c1ccc(Nc2cc(-c3ccc4cc(C#N)cnn34)ncc2C(=O)NC[C@@H](F)C(C)(C)O)cc1` [Example 350, (R)-6-(3-cyanopyrrolo[1,2-b]pyridazin-7-yl)-N-(2-fluoro-3-hydroxy-3-methylbutyl)-4-((4-(methylcarbamoyl)phenyl)amino)nicotinamide], the EC50 in the experiment with TNFα stood at 12 nM. Moreover, the IC50 against IRAK4 enzyme was below 1 nM.

Take `CNC(=O)O[C@H]1C[C@@H](Nc2cc(-c3ccc4cc(C#N)cnn34)ncc2C(=O)NC[C@@H](F)C(C)(C)O)C1` [Example 351, (1S,3S)-3-((2-(3-cyanopyrrolo[1,2-b]pyridazin-7-yl)-5-(((R)-2-fluoro-3-hydroxy-3-methylbutyl)carbamoyl)pyridin-4-yl)amino)cyclobutyl methylcarbamate]: the EC50 in the experiment with TNFα was 120 nM. The compound further showed an IC50 against IRAK4 enzyme of 2 nM.

Turning to `N#CCCNC(=O)c1cnc(-c2ccc3cc(C#N)cnn23)cc1NC12CCC(O)(CC1)CC2` [Example 352, N-(2-cyanoethyl)-6-(3-cyanopyrrolo[1,2-b]pyridazin-7-yl)-4-((4-hydroxybicyclo[2.2.2]octan-1-yl)amino) nicotinamide], the half-maximal effective concentration (EC50) in the experiment on TNFα worked out at 76 nM. The compound also registered an IC50 against IRAK4 enzyme of 1 nM.

In the case of `CC(C)(F)[C@H](F)CNC(=O)c1cnc(-c2ccc3cc(C#N)cnn23)cc1NC12CCC(O)(CC1)CC2` [Example 353, (R)-6-(3-cyanopyrrolo[1,2-b]pyridazin-7-yl)-N-(2,3-difluoro-3-methylbutyl)-4-((4-hydroxybicyclo[2.2.2]octan-1-yl)amino) nicotinamide], in the experiment on TNFα, the EC50 amounted to 16 nM. Moreover, the IC50 against IRAK4 enzyme is below 1 nM.

Turning to `COC(C)(C)[C@H](F)CNC(=O)c1cnc(-c2ccc3cc(C#N)cnn23)cc1NC12CCC(O)(CC1)CC2` [Example 354, (R)-6-(3-cyanopyrrolo[1,2-b]pyridazin-7-yl)-N-(2-fluoro-3-methoxy-3-methylbutyl)-4-((4-hydroxybicyclo[2.2.2]octan-1-yl)amino) nicotinamide], the EC50 in the experiment with TNFα is 19 nM. The compound further registered an IC50 against IRAK4 enzyme below 1 nM.

On to `CC(C)(O)CCNC(=O)c1cnc(-c2ccc3cc(C#N)cnn23)cc1NC12CCC(O)(CC1)CC2` [Example 355, 6-(3-cyanopyrrolo[1,2-b]pyridazin-7-yl)-N-(3-hydroxy-3-methylbutyl)-4-((4-hydroxy-bicyclo[2.2.2]octan-1-yl)amino)nicotinamide], for which the EC50 in the experiment on TNFα was found to be 23 nM. This compound also gave an IC50 against IRAK4 enzyme below 1 nM.

Regarding `CNC(=O)O[C@H]1C[C@@](C)(Nc2cc(-c3ccc4cc(C#N)cnn34)ncc2C(=O)NC[C@@H](F)C(C)(C)O)C1` [Example 356], the EC50 in the experiment with TNFα was found to be 800 nM. On IRAK4 enzyme, this compound yielded an IC50 of 6 nM.

Consider `CC(C)(C)NC(=O)c1cnc(-c2ccc3cc(C#N)cnn23)cc1NC12CCC(O)(CC1)CC2` [Example 357, N-(tert-butyl)-6-(3-cyano-pyrrolo[1,2-b]pyridazin-7-yl)-4-((4-hydroxy-bicyclo[2.2.2]octan-1-yl)amino)nicotinamide], for which the EC50 in the experiment with TNFα is 413 nM. In addition, on IRAK4 enzyme, the half-inhibitory concentration (IC50) amounted to 9 nM.

`[2H]C([2H])([2H])NC(=O)c1cnc(-c2ccc3cc(C#N)cnn23)cc1NC12CCC(O)(CC1)CC2` [Example 358, 6-(3-cyanopyrrolo[1,2-b]pyridazin-7-yl)-4-((4-hydroxybicyclo[2.2.2]octan-1-yl)amino)-N-(methyl-d3)nicotinamide]: the 50% effective concentration (EC50) with TNFα was determined as 122 nM. On IRAK4 enzyme, this compound yielded an IC50 of 3 nM.

As for `CC(C)(O)[C@H](F)CNC(=O)c1cnc(-c2ccc3cc(C#N)cnn23)cc1Nc1nc(-c2ccc(Oc3ccccc3)cc2)cs1` [Example 359, (R)-6-(3-cyanopyrrolo[1,2-b]pyridazin-7-yl)-N-(2-fluoro-3-hydroxy-3-methylbutyl)-4-((4-(4-phenoxyphenyl)thiazol-2-yl)amino)nicotinamide], the EC50 with TNFα is above 10000 nM. At IRAK4 enzyme, this compound had an IC50 of 614 nM.

With `CC(C)(C)c1cc(Nc2cc(-c3ccc4cc(C#N)cnn34)ncc2C(=O)NC[C@@H](F)C(C)(C)O)on1` [Example 360, (R)-4-((3-(tert-butyl)isoxazol-5-yl)amino)-6-(3-cyanopyrrolo[1,2-b]pyridazin-7-yl)-N-(2-fluoro-3-hydroxy-3-methyl-butyl)nicotinamide], the EC50 in the experiment on TNFα is above 10000 nM. Besides, inhibition at IRAK4 enzyme was half-maximal at 2 nM (IC50).

On to `CNC(=O)c1cnc(-c2ccc3cc(C#N)cnn23)cc1NC12CCC(O)(CC1)CC2` [Example 361, 6-(3-cyanopyrrolo[1,2-b]pyridazin-7-yl)-4-((4-hydroxybicyclo[2.2.2]octan-1-yl)amino)-N-methylnicotinamide], for which the concentration giving a half-maximal response (EC50) in the experiment with TNFα stood at 50 nM. The IC50 at IRAK4 enzyme was 1 nM.

On to `CNC(=O)[C@H]1CC[C@@H](Nc2cc(-c3ccc4cc(C#N)cnn34)ncc2C(=O)NC[C@@H](F)C(C)(C)O)CC1` [Example 362, 6-(3-cyanopyrrolo[1,2-b]pyridazin-7-yl)-N-((R)-2-fluoro-3-hydroxy-3-methylbutyl)-4-(((1s,4S)-4-(methylcarbamoyl)cyclo-hexyl)amino)nicotinamide], for which the EC50 in the experiment with TNFα worked out at 1430 nM. This compound also displayed an IC50 against IRAK4 enzyme of 9 nM.

Consider `CC(C)(O)[C@H](F)CNC(=O)c1cnc(-c2ccc3cc(C#N)cnn23)cc1Nc1nc(-c2ccccc2)cs1` [Example 363, (R)-6-(3-cyanopyrrolo[1,2-b]pyridazin-7-yl)-N-(2-fluoro-3-hydroxy-3-methylbutyl)-4-((4-phenyl-thiazol-2-yl)amino) nicotinamide], for which the half-maximal effective concentration (EC50) in the experiment with TNFα is 328 nM. At IRAK4 enzyme, this compound displayed an IC50 of 5 nM.

As for `Cc1ccc(-c2cc(Nc3cc(-c4ccc5cc(C#N)cnn45)ncc3C(=O)NC[C@@H](F)C(C)(C)O)n(-c3ccccc3)n2)cc1` [Example 364, (R)-6-(3-cyanopyrrolo[1,2-b]pyridazin-7-yl)-N-(2-fluoro-3-hydroxy-3-methylbutyl)-4-((1-phenyl-3-(p-tolyl)-1H-pyrazol-5-yl)amino)nicotinamide], the EC50 in the experiment on TNFα was above 10000 nM. The compound also registered an IC50 on IRAK4 enzyme of 1000 nM.

On to `CC(C)(O)[C@H](F)CNC(=O)c1cnc(-c2ccc3cc(C#N)cnn23)cc1Nc1sc2c(c1C(N)=O)CCCC2` [Example 365, (R)-4-((3-carbamoyl-4,5,6,7-tetrahydrobenzo[b]thiophen-2-yl)amino)-6-(3-cyanopyrrolo[1,2-b]pyridazin-7-yl)-N-(2-fluoro-3-hydroxy-3-methylbutyl)nicotinamide], for which the EC50 with TNFα is 415 nM. The IC50 against IRAK4 enzyme was determined as 4 nM.

For the compound `CN(C)C1CCC(NC(=O)c2cnc(-c3ccc4cc(C#N)cnn34)cc2N[C@H]2CCC[C@@H](O)C2)CC1` (stereo partly drawn) [Example 366, 6-(3-cyanopyrrolo[1,2-b]pyridazin-7-yl)-N-((1r,4S)-4-(dimethylamino)cyclohexyl)-4-(((1S,3R)-3-hydroxycyclohexyl)amino) nicotinamide], the EC50 in the experiment with TNFα was found to be 162 nM. Further, on IRAK4 enzyme, the concentration for half-maximal inhibition (IC50) was found to be 1 nM.

On to `CC(C)(O)[C@H](F)CNC(=O)c1cnc(-c2ccc3cc(C#N)cnn23)cc1NC1CCC(=O)NC1` (stereo partly drawn) [Example 367, 6-(3-cyanopyrrolo[1,2-b]pyridazin-7-yl)-N-((R)-2-fluoro-3-hydroxy-3-methylbutyl)-4-((6-oxopiperidin-3-yl)amino)nicotinamide], for which the EC50 with TNFα was determined as 1560 nM. For the same compound, on IRAK4 enzyme, inhibition was half-maximal at 3 nM (IC50).

Broadly, the EC50 is the concentration needed to bring the measured effect to its halfway point. In general, IC50 refers to the concentration that gives 50% inhibition. A high value points to weaker potency in that assay.
